12 compounds from patent US6352722B1, “Derivatized carbohydrates, compositions comprised thereof and methods of use thereof” (Quadrant Holdings Cambridge Limited, priority 1997, dated 2002) can be followed below.

The nature of series [1]: Glass formation, crystallization and glass stability above ambient temperature. It counts as physicochemical. The text has this: In the usual process to form a vitreous glass, a high temperature melt is quenched (cooled quickly) to solidify without crystallization to a vitreous glass. Most glassy materials can theoretically quench to a vitreous glass, however, factors such as low melt viscosity, thermodynamically favorable crystalline states and thermal degradation, limit their potential to form vitreous rather than crystalline solids.
(§1) The carbohydrate derivatives were routinely synthesized by standard esterification of the carbohydrate with the chloride of the desired hydrocarbon side chain under anhydrous conditions and the resulting derivatives purified by standard techniques of solvent extraction and re-crystallization. For example, trehalose octa-3,3-dimethylbutyrate was synthesized by reacting 3,3,-dimethylbutyroyl chloride with trehalose in anhydrous pyridine, followed by extraction with ether, hydrochloric acid, potassium carbonate solution and water and finally re-crystallized twice from alcohol to yield colorless, needle-like crystals (˜80% yield) of m.pt 138-140° C., αD 112°. Trehalose hexa-3,3-dimethylbutyrate (THEX) can be prepared by protecting the 6,6′-hydroxy group of trehalose with a bulky group such as trityl or t-butyldiphenylsilyl, for example by heating trehalose and trityl chloride in pyridine. The 6,6′-ditrityltrehalose can be acylated with 3,3-dimethylbutyroyl chloride in pyridine to give 6,6′-ditritylhexa-3,3-dimethylbutyryltrehalose. The trityl group can be removed by strong acid, for example hydrogen bromide in acetic acid, to give THEX. TACT can be prepared by acylating THEX with acetic anhydride in pyridine. Suitable work-up yields the HDC in crystalline form. The physical characteristics, melting points and glass transition temperatures (Tg, ° C.) of selected carbohydrate derivatives are shown in Tables 1-5.
This unusual property of branched-chain derivatives enables more hydrophobic derivatives (compared to the acetates) to be prepared, which permits further reduction of drug release rates for longer term applications.

Series [2] is described as follows: Tg of HDC formulations with incorporated active. It counts as physicochemical. The source says:
(§2) The model hydrophilic drug, diltiazem hydrochloride (“hydrophilic active”), was incorporated (10% loading) into solid vehicles of the single straight chain HDC trehalose octaacetate or the branched chain HDCs trehalose octa-3,3, dimethylbutyrate and trehalose octapivalate as well as composite formulations (1:1 ratio) of the two branched-chain HDCs or the straight chain HDC trehalose octaacetate and the branched chain HDC trehalose octapivalate, by quenching from the melt. Release of the active from the HDC solid dose delivery vehicle was assessed using an in vitro USP (volume 23) type 2 dissolution test in saline containing 0.1% sodium cholate as the dissolution medium.
The model hydrophilic drug diltiazem hydrochloride was also incorporated (5% loading) into solid vehicles of the single branched chain HDCs trehalose diisobutyrate hexaacetate and trehalose octapivalate and composite formulations (1:1 ratio) of the two branched-chain HDCs by solvent removal by rotary evaporation, in a Buchi Rotavapor R-124, of a 20% solution of active plus HDCs in a dichloromethane: acetone mixed solvent (9:1 ratio) system. […] (trehalose octapivalate) of the single branched-chain HDC formulations of active.
(§3) The model hydrophobic steroid fluticasone propionate (“hydrophobic active”) was incorporated (5% loading) into solid vehicles of the single straight chain HDC trehalose octaacetate or the branched chain HDCs trehalose octa-3,3, dimethylbutyrate and trehalose dipropanoate hexaacetate and composite formulations (1:1 ratio) of the two branched-chain HDCs by either quenching from the melt or solvent evaporation by rotary evaporation. Melt incorporation was carried out by melting the HDCs at 150-170° C. and dissolving the active in the melt at 120-140° C. Rotary evaporation was carried out using a Buchi Rotavapor R-124 using a 20% solution of active plus HDCs in a dichloromethane: acetone mixed solvent (9:1 ratio) system. The hydrophobic active was also incorporated into solid vehicles of the branched chain HDCs, trehalose octapivalate, trehalose diisobutyrate hexaacetate and lactose isobutyrate heptaacetate, either by quenching from the melt or solvent evaporation by rotary evaporation. Release of hydrophobic active from the HDC solid dose delivery vehicle was assessed using an in vitro USP (volume 23) type 2 dissolution test in saline containing 0.1% sodium cholate as the dissolution medium.
(§4) As an example of a polypeptide drug, the polypeptide hormone insulin (“polypeptide active”) was incorporated (10% loading) into solid vehicles of the single branched chain HDCs trehalose diisobutyrate hexaacetate and trehalose hexapivalate and composite formulations of the branched chain HDCs trehalose diisobutyrate hexaacetate and trehalose octapivalate (8:1 ratio) by solvent removal by lyophilization of a 20% solution of insulin plus HDCs in dimethylsulfoxide. […] Release of active from the HDC solid dose delivery vehicle was assessed using an in vitro USP (volume 23) type 2 dissolution test in saline containing 0.1% sodium cholate as the dissolution medium.

Series [3] can be described thus: Glass transition temperature (Tg) of derivatized carbohydrates, by DSC. It counts as physicochemical.
Excerpt: The reaction product can be characterized structurally by methods known in the art, including, but not limited to, nuclear magnetic resonance spectroscopy (NMR) and its material science properties characterized by differential scanning calorimetry (DSC). The characteristic melting points and Tgs (glass transition temperatures) for the derivatized carbohydrates can also be determined by DSC and other methods known in the art.
as §1
Background: In DSC, transitions show as peaks or steps in heat flow.

A short description of series [4]: Devitrification / glass stability when immersed in aqueous media. The conditions noted are these: immersed in saline medium at 37° C.
Series [5] can be described thus: In vitro USP (volume 23) type 2 dissolution test, release of active from HDC solid vehicle. It counts as physicochemical. The conditions noted are these: saline with 0.1% sodium cholate; for release of fluticasone propionate from single HDC formulation: compared to trehalose octaacetate formulation Q1 (FIG. 3).
Excerpt: as §2, §3, §4

Where [6] appears, read: hydrophobic active (fluticasone propionate, 5% loading) incorporated.
Setting [7] is: derivatized carbohydrate alone, Tables 1-4.
[8] abbreviates: derivatized carbohydrate without active, Table 5.
Where [9] appears, read: hydrophilic active (diltiazem hydrochloride) incorporated.
The mark [10] stands for this setting: polypeptide active (insulin, 10% loading) incorporated by lyophilization from dimethylsulfoxide.

Take `CC(C)C(=O)OCC1OC(OC2C(COC(=O)C(C)C)OC(OC(=O)C(C)C)C(OC(=O)C(C)C)C2OC(=O)C(C)C)C(OC(=O)C(C)C)C(OC(=O)C(C)C)C1OC(=O)C(C)C` (stereo not shown) [Cellobiose octaisobutyrate]: the “COMMENT: glass formation / glass stability above ambient temperature” value in series [1] was “very hard to quench to glass”.

With `CC(=O)OC[C@H]1O[C@@H](O[C@H]2[C@H](OC(C)=O)[C@@H](OC(C)=O)C(OC(=O)C(C)C)O[C@@H]2COC(C)=O)[C@H](OC(C)=O)[C@@H](OC(C)=O)[C@H]1OC(C)=O` (stereo partly shown) [Lactose isobutyrate heptaacetate], in series [2] (setting [6]), the “Tg (° C.) with active incorporated” value came out at 59 °C. The crystallization from solution result is reported as “fails to crystallize” in series [1] (blend: small amount of the corresponding anomer added) and “crystallize from solution” in series [1] (pure α,β anomers). Moreover, the “Tg(° C.)” value in series [3] (setting [7]) and in series [3] (setting [8]) was 60 °C throughout.

For the compound `CC(=O)OC[C@H]1O[C@H](O[C@H]2O[C@H](COC(C)=O)[C@@H](OC(=O)CC(C)(C)C)[C@H](OC(=O)CC(C)(C)C)[C@H]2OC(=O)CC(C)(C)C)[C@H](OC(=O)CC(C)(C)C)[C@@H](OC(=O)CC(C)(C)C)[C@@H]1OC(=O)CC(C)(C)C` [Trehalose 6,6′-diaacetate hexa-3,3-dimethylbutyrate], the “Tg(° C.)” value in series [3] (setting [7]) came to 44 °C. Further, the “stability of the glassy state” value in series [4] is reported as “the glass stability is reduced”.

For the compound `CC(C)(C)CC(=O)OC[C@H]1O[C@H](O[C@H]2O[C@H](COC(=O)CC(C)(C)C)[C@@H](OC(=O)CC(C)(C)C)[C@H](OC(=O)CC(C)(C)C)[C@H]2OC(=O)CC(C)(C)C)[C@H](OC(=O)CC(C)(C)C)[C@@H](OC(=O)CC(C)(C)C)[C@@H]1OC(=O)CC(C)(C)C` [Trehalose octa-3,3-dimethylbutyrate], the “release of diltiazem hydrochloride (DZM) from single HDC formulation” value in series [5] (10% loading, compared to trehalose octaacetate formulation (FIG. 1)) is on record as “much slower release”. Besides, the “release of fluticasone propionate from single HDC formulation” value in series [5] is “much slower release”. Moreover, the “Tg (° C.) with active incorporated” value in series [2] (setting [6]) was 45 °C. In addition, the “Tg(° C.)” value in series [3] (setting [7]) worked out at 42 °C; in series [3] (setting [8]) it was 46 °C.

Consider `CC(=O)OCC1OC(OC2OC(COC(C)=O)C(OC(C)=O)C(OC(C)=O)C2OC(C)=O)C(OC(C)=O)C(OC(C)=O)C1OC(C)=O` (stereo not shown) [Trehalose octaacetate, reference compound], for which the “release of active (insulin)” value in series [5] (after 1 hour in the dissolution assay) is recorded as 88%. Further, the “Tg (° C.) with active incorporated” value in series [2] (setting [6]) was 53 °C. Moreover, the “Tg(° C.)” value in series [3] (setting [7]) was 55 °C; in series [3] (setting [8]), 50 °C.

Regarding `CC(C)(C)C(=O)OC[C@H]1O[C@H](O[C@H]2O[C@H](COC(=O)C(C)(C)C)[C@@H](OC(=O)C(C)(C)C)[C@H](OC(=O)C(C)(C)C)[C@H]2OC(=O)C(C)(C)C)[C@H](OC(=O)C(C)(C)C)[C@@H](OC(=O)C(C)(C)C)[C@@H]1OC(=O)C(C)(C)C` [Trehalose octapivalate], the “release of fluticasone propionate from single HDC formulation” value in series [5] is listed as “much slower release”. Also, the “Tg (° C.) with active incorporated” value in series [2] (setting [9]) stood at 83.7 °C; in series [2] (setting [6]), 80 °C. Besides, the figures for the “Tg(° C.)” value in series [3] (setting [7]) and in series [3] (setting [8]) were 81 °C and 80 °C, respectively.

On to `CC(=O)OCC1OC(OC2C(COC(C)=O)OC(OC(C)=O)C(OC(C)=O)C2OC(C)=O)C(OC(C)=O)C(OC(C)=O)C1OC(C)=O` (stereo not drawn) [α-Cellobiose octaacetate, reference compound], for which the “COMMENT: glass formation / glass stability above ambient temperature” value in series [1] is listed as “Poor glass former”. The “Tg(° C.)” value in series [3] (setting [7]) was determined as 65 °C.

With `CC(=O)OCC1OC(OC2C(COC(C)=O)OC(OC(C)=O)C(OC(C)=O)C2OC(C)=O)C(OC(C)=O)C(OC(C)=O)C1OC(C)=O` (stereo not drawn) [β-Cellobiose octaacetate, reference compound], the “COMMENT: glass formation / glass stability above ambient temperature” value in series [1] was “Good glass former”. Moreover, in series [3] (setting [7]), the “Tg(° C.)” value was 53 °C.

Regarding Trehalose diisobutyrate hexaacetate, the “Tg (° C.) with active incorporated” value in series [2] (setting [9]) was found to be 46.5 °C; in series [2] (setting [6]) it was 50 °C; in series [2] (setting [10]), 50.1 °C. Besides, the “Tg(° C.)” value in series [3] (setting [8]) was found to be 42 °C.

Take Trehalose dipropanoate hexaacetate: in series [2] (setting [6]), the “Tg (° C.) with active incorporated” value is 44 °C. Moreover, the “Tg(° C.)” value in series [3] (setting [8]) came to 38 °C.

Regarding Trehalose hexa-3,3-dimethylbutyrate, in series [3] (setting [7]), the “Tg(° C.)” value was 64 °C. The “stability of the glassy state” value in series [4] was “stable in the glassy state”.

Regarding Trehalose hexapivalate, the “Tg (° C.) with active incorporated” value in series [2] (setting [10]) worked out at 76.5 °C. For the same compound, the “Tg(° C.)” value in series [3] (setting [7]) and in series [3] (setting [8]) was 86 °C throughout.
